Data reported in paper PMC8388802, “Study on the Structure-Activity Relationship of an Antimicrobial Peptide, Brevinin-2GUb, from the Skin Secretion of Hylarana guentheri” (Antibiotics, 2021).
Where a SMILES comes first, the peptide text is derived from it.

Tests used:
[1] = test system: S. aureus (ATCC 6538) biofilm; assay type: cell-based, Staphylococcus aureus; details: ATCC 6538, 24 h
Procedure: (§1) The anti-biofilm activities of the peptides against S. aureus (ATCC 6538), MRSA (NCTC 12493), E. faecalis (NCTC 12493), E. coli (ATCC CRM 8739), K. pneumoniae (ATCC 43816), and P. aeruginosa (ATCC CRM 9027) were evaluated.
(§2) The bacteria were inoculated in a different medium (Gram-positive bacteria were in TSB and Gram-negative bacteria were in LB) overnight, and the subculture was conducted in the same medium. When the bacteria reached a specific density, 100 µL of the dilution was added to each well of the 96-well microplate. Then 1 µL of peptide at a series of concentrations, the same concentration in the antimicrobial assay, were added into the well together with the bacteria. The plates were put into a moist shaking incubator with a speed of 200 rpm, and the temperature was set at 37 ℃. After a 24-h incubation, the liquid in the wells was aspirated, and each was washed twice by 100 µL PBS. One hundred µL of methanol were added into each well to stabilise the biofilm. After air-drying, 100 µL crystal violet was used to dye the biofilm, and they were dissolved in the 100 µL glacial acidic acid after drying. The solutions were transferred to a new microplate, and the absorbance of each well was tested by a microplate reader (EL808, Biolise BioTek Winooski, Minneapolis, MN, USA) at 595 nm wavelength. MBIC was the minimum concentration of the peptide showing no biofilm formation.
(§3) The bacteria were inoculated in a different medium (Gram-positive bacteria were in TSB and Gram-negative bacteria were in LB) overnight, and the subculture was conducted in the same medium. When the bacteria reached a specific density, 100 µL of the dilution was added to each well of the 96-well microplates. The plates were put into a moist shaking incubator with a speed of 200 rpm and the temperature was 37 ℃. After a 24 h incubation, the liquid in the wells was aspirated and they were washed twice by 100 µL PBS of each well. The peptides with the same concentrations were diluted in the corresponding medium and 100 µL were added into each well. After a 24-h incubation, the liquid in the wells was aspirated and they were washed twice by 100 µL PBS. One hundred µL of methanol were added into the wells to stabilise the biofilms. After being air-dried, 100 µL crystal violet was used to dye the biofilm, and they were dissolved in the 100 µL glacial acidic acid after drying. The solutions were transferred to a new microplate, and the absorbance of each well was tested by a microplate reader (EL808, Biolise BioTek Winooski, Minneapolis, USA) at 595 nm wavelength.

[2] = test system: E. faecalis (NCTC 12493) biofilm; assay type: cell-based, Enterococcus faecalis; details: NCTC 12493, 24 h
Procedure: as §1, §2, §3

[3] = test system: C. albicans (ATCC CRM 10231); assay type: cell-based, Candida albicans
Procedure: (§4) The method of antimicrobial assay is based on the Methods for Dilution Antimicrobial Susceptibility Tests for Bacteria that Grow Aerobically from the Clinical and Laboratory Standards Institute (CLSI).The antimicrobial activities of peptides were evaluated against Gram-positive bacteria S. aureus (ATCC 6538), MRSA (NCTC 12493), E. faecalis (NCTC 12493), Gram-negative bacteria E. coli (ATCC CRM 8739), K. pneumoniae (ATCC 43816), P. aeruginosa (ATCC CRM 9027), yeast C. albicans (ATCC CRM 10231) and clinical isolates MRSA (B042 V2E1 A), E. coli (ATCC BAA-2340), K. pneumoniae (ATCC BAA-1705), P. aeruginosa (B004 V2S2 B).
(§5) At the first stage of the assay, 20 μL bacteria were cultured in 100 mL Mueller Hinton Broth (MHB) or Yeast Extract–Peptone–Dextrose broth (YPD-B), respectively, and was incubated overnight. Then, microorganisms were subcultured in 20 mL fresh MHB or YPD-B to achieve cultures in the logarithmic phase (1 × 10^8 CFU/mL), which can be verified by optical density (OD) (The OD of Gram-positive bacteria is 0.23, OD of Gram-negative bacteria is 0.4, and OD of yeast is 0.15), and viable cell counts. Then, the medium was used to dilute the cultures to specific cell densities (Gram-negative and Gram-positive bacteria: 5 × 10^5 CFU/mL; yeast: 1 × 10^6 CFU/mL), which were the final concentrations of bacterial suspensions used in the assay. The peptides were dissolved in DMSO to reach a final concentration of 512 µM. A series of two-fold dilutions ranging from 512 µM to 1 µM were dosed in the 96-well plates.
(§6) Antimicrobial assays were conducted in 96-well plates, which were divided into five groups, including a negative control group (PBS), a positive control group (20 μg/mL norfloxacin for bacteria and 10 μg/mL amphotericin B for yeast), vehicle control (1% DMSO), blank control (MHB or YPD-B), and a peptide group. Each microorganism had five repetitions, and each well contained 1 µL corresponding solution and 99 µL culture. After incubation at 37 °C overnight, the absorbance of each well was tested by a microplate reader (EL808, Biolise BioTek Winooski, Minneapolis, USA) under a 550 nm wavelength. The MIC is the lowest concentration at which no bacterial growth can be observed.
(§7) The next day, 10 µL of every clear well was taken out to be cultured on a Mueller Hinton Agar (MHA) plate and incubated at 37 °C for 16–20 h. The MBC is the lowest concentration without any bacterial colonies, which means at this concentration, the peptide reduces the viability of the pathogen by more than 99.9%.

[4] = test system: P. aeruginosa (ATCC CRM 9027); assay type: cell-based, Pseudomonas aeruginosa
Procedure: as §4, §5, §6, §7

[5] = test system: P. aeruginosa (B004 V2S2 B); assay type: cell-based, Pseudomonas aeruginosa
Procedure: as §4, §5, §6, §7

[6] = test system: MRSA (B042 V2E1 A); assay type: cell-based, Methicillin-resistant Staphylococcus aureus
Procedure: as §4, §5, §6, §7

[7] = test system: E. coli (ATCC CRM 8739); assay type: cell-based, Escherichia coli
Procedure: as §4, §5, §6, §7

[8] = test system: E. coli (ATCC CRM 8739) biofilm; assay type: cell-based, Escherichia coli; details: ATCC CRM 8739, 24 h
Procedure: as §1, §2, §3

[9] = test system: K. pneumoniae (ATCC 43816); assay type: cell-based, Klebsiella pneumoniae
Procedure: as §4, §5, §6, §7

[10] = test system: K. pneumoniae (ATCC BAA-1705); assay type: cell-based, Klebsiella pneumoniae
Procedure: as §4, §5, §6, §7

MIC [3]: >512 µM | MIC [4]: >512 µM | MIC [5]: >512 µM | MIC [6]: >512 µM | MIC [7]: >512 µM | MIC [9]: >512 µM | MIC [10]: >512 µM
Compound: CC[C@H](C)[C@H](NC(=O)[C@@H](NC(=O)CN)C(C)C)C(=O)N[C@H](C(=O)N[C@@H](CCCCN)C(=O)N[C@H](C(=O)N[C@@H](CC(C)C)C(=O)N[C@@H](CCCCN)C(=O)NCC(=O)N[C@@H](C)C(=O)N[C@@H](C)C(=O)N[C@@H](CCCCN)C(=O)N[C@H](C(=O)N[C@H](C(N)=O)C(C)C)[C@@H](C)O)[C@@H](C)O)[C@@H](C)CC [Peptide 14-tB2U-K] (H-GVIIKTLKGAAKTV-NH2)
MBEC [1]: >512 µM | MBIC [1]: >512 µM | MBEC [2]: >512 µM | MBIC [2]: >512 µM | MBC [3]: >512 µM | MBC [4]: >512 µM | MBC [5]: >512 µM | MBC [6]: >512 µM | MBC [7]: >512 µM | MBEC [8]: >512 µM | MBIC [8]: >512 µM | MBC [9]: >512 µM | MBC [10]: >512 µM
